Measured values reported in patent US20120077673A1, “Fungicidal Compositions and Methods of Use” (priority 2010, published 2012).

Tests used:
Type in all cases: in vivo
[1] = system: Pythium; assay: Corn hybrids greenhouse trial, Pythium-infected seeds, seed treatment (Example 4)
Excerpt: Concentrations and compositions of triadimenol, metalaxyl, and saponin are the same as given in Example 1. The data of TABLE 4 are shown graphically in FIGS. 4A and 4B. As shown by TABLE 4 and FIGS. 4A and 4B, pre-treatment of both varieties of corn seeds with 1 GA/100 Kg metalaxyl and 0.6 GA/100 Kg yielded counts similar to those achieved from pre-treatment of seeds with either 2 GA/100 Kg metalaxyl (the industry standard dose for corn) or 7.5 GA/100 Kg metalaxyl.

[2] = system: Pythium; assay: Corn field trial, Pythium-infected seeds, seed treatment, soil not inoculated (Example 1); set-up: Density: unit not given here; conditions: for Vigor: subjective score, lower more favorable
Excerpt: Unlike other experiments disclosed herein, the soil for the experiment of EXAMPLE 1 was not inoculated with Pythium. Uninfected untreated, and Pythium-infected untreated seeds served as controls. Triadimenol, 15% w/v, is a systemic broad-spectrum fungicide used for cereal seed treatment, but has no activity against Pythium spp. Metalaxyl, 28.35% w/v, provides systemic protection for the seed, roots, and emerging plants against Pythium, systemic downy mildew, and Phytophthora. For corn, the industry standard dosage of metalaxyl is 2 grams of active ingredient per 100 kilograms of seed (2 GA/100 Kg). Saponin, 49.65% v/v extract of Chenopodium quinoa saponins, contained approximately equimolar amounts of triterpene bidesmosidic glycosides of oleanolic acid, hederagenin, and phytolaccagenic acid. […] In TABLE 1, “Vigor” represents a subjective measure of plant health and is based on uniformity, consistent plant mass, and consistent plant spacing, with lower scores being more favorable than higher scores. The data of TABLE 1 are shown graphically in FIGS. 1A and 1B. As shown by TABLE 1 and FIGS. 1A and 1B, the count and the density increased—over time—for all treatment conditions. The relative density, however, decreased over time for the […] and metalaxyl (2 GA/100 kg) categories. The relative density remained the same for the untreated/uninfected category because it provided the reference point (i.e., the relative densities were calculated with reference to the untreated/uninfected category).

[3] = system: Pythium ultimum; assay: Cotton varieties greenhouse trial, metalaxyl-resistant Pythium ultimum (Example 5)
Excerpt: Two different varieties of cotton seedlings (Variety A, and Variety B) that were infected with Pythium ultimum were exposed to various rates of metalaxyl, saponins, or metalaxyl+Saponin, and then allowed to grow in a greenhouse to determine whether the effects observed in the field could be reproduced in a greenhouse setting. This particular strain of Pythium ultimum was shown previously to have a mid-degree of resistance to seed treatments containing metalaxyl and/or L-metalaxyl. […] The stand counts from Variety B show a similar trend with the 1 GA/100 Kg rate of metalaxyl (see FIG. 5B).

[4] = system: Pythium; assay: Cucumber field trial, Pythium-infected seeds, seed treatment, control or Pythium-inoculated soil (Example 3); set-up: Density: unit not given here
Excerpt: The seeds were planted in a field, either in soil that had been inoculated with Pythium (Soil Inoc. with Pythium), or in soil that had not been inoculated with Pythium (Ctrl.), then allowed to grow. Concentrations and compositions of triadimenol, metalaxyl, and saponin are the same as given in Example 1. For cucumber, the industry standard dosage of metalaxyl is 15.5 grams of active ingredient per 100 kilograms of seed (15.5 GA/100 Kg). […] The data of TABLE 3 are shown graphically in FIG. 3. The relative densities for the data of TABLE 3 and FIG. 3 were calculated with reference to the 31 GA/100 Kg metalaxyl category. As shown by TABLE 3 and FIG. 3, inoculation of the soil with Pythium was correlated with a general decrease in cucumber seedling count, density, and relative density (compare Ctrl. versus Inoc.).

[5] = system: Pythium; assay: Cotton field trial, Pythium-infected seeds, seed treatment, control or Pythium-inoculated soil (Example 2)
Excerpt: The seeds were planted in a field, either in soil that had been inoculated with Pythium (Soil Inoc. with Pythium), or in soil that had not been inoculated with Pythium (Ctrl.), then allowed to grow. Concentrations and compositions of triadimenol, metalaxyl, and saponin are the same as given in Example 1. For cotton, the industry standard dosage of metalaxyl is 15.5 grams of active ingredient per 100 kilograms of seed (15.5 GA/100 Kg). […] The data of TABLE 2 are shown graphically in FIG. 2. The relative densities for the data of TABLE 2 and FIG. 2 were calculated with reference to the 15.5 GA/100 Kg metalaxyl category. As shown by TABLE 2 and FIG. 2, inoculation of the soil with Pythium was correlated with a general decrease in cotton seedling count and density (compare Ctrl. versus Inoc.).

[6] = Metalaxyl 7.5 GA/100 Kg, Day 14
[7] = Metalaxyl 7.5 GA/100 Kg, 30 DAA
[8] = Metalaxyl 7.5 GA/100 Kg, 46 DAA
[9] = Metalaxyl 15.5 GA/100 Kg, 18 DAA, Ctrl. soil
[10] = Metalaxyl 15.5 GA/100 Kg, 18 DAA, Soil Inoc. with Pythium
[11] = Metalaxyl 15.5 GA/100 Kg, 33 DAA, Ctrl. soil
[12] = Metalaxyl 31 GA/100 Kg, 18 DAA, Ctrl. soil
[13] = Metalaxyl 31 GA/100 Kg, 18 DAA, Soil Inoc. with Pythium
[14] = Metalaxyl 31 GA/100 Kg, 33 DAA, Ctrl. soil
[15] = Metalaxyl 31 GA/100 Kg, 33 DAA, Soil Inoc. with Pythium
[16] = Metalaxyl 15.5 GA/100 Kg, 34 DAA, Ctrl. soil
[17] = Metalaxyl 15.5 GA/100 Kg, 34 DAA, Soil Inoc. with Pythium
[18] = Metalaxyl 15.5 GA/100 Kg, 46 DAA, Ctrl. soil
[19] = Metalaxyl 15.5 GA/100 Kg, 46 DAA, Soil Inoc. with Pythium
[20] = Metalaxyl 31 GA/100 Kg, 34 DAA, Ctrl. soil
[21] = Metalaxyl 31 GA/100 Kg, 34 DAA, Soil Inoc. with Pythium
[22] = Metalaxyl 31 GA/100 Kg, 46 DAA, Ctrl. soil
[23] = Metalaxyl 31 GA/100 Kg, 46 DAA, Soil Inoc. with Pythium

SMILES: COCC(=O)N(c1c(C)cccc1C)C(C)C(=O)OC (centres unmarked) [Metalaxyl]
- Count, Hybrid A ([1]; Metalaxyl 2 GA/100 Kg, Day 2): 92
- Count, Hybrid B ([1]; Metalaxyl 2 GA/100 Kg, Day 2): 74
- Count, Hybrid A ([1]; Metalaxyl 2 GA/100 Kg, Day 7): 98
- Count, Hybrid B ([1]; Metalaxyl 2 GA/100 Kg, Day 7): 88
- Count, Hybrid A ([1]; Metalaxyl 2 GA/100 Kg, Day 14): 98
- Count, Hybrid B ([1]; Metalaxyl 2 GA/100 Kg, Day 14): 88
- Count, Hybrid A ([1]; Metalaxyl 7.5 GA/100 Kg, Day 2): 94
- Count, Hybrid B ([1]; Metalaxyl 7.5 GA/100 Kg, Day 2): 64
- Count, Hybrid A ([1]; Metalaxyl 7.5 GA/100 Kg, Day 7): 96
- Count, Hybrid B ([1]; Metalaxyl 7.5 GA/100 Kg, Day 7): 94
- Count, Hybrid A [1, 6]: 96
- Count, Hybrid B [1, 6]: 98
- Count ([2]; Metalaxyl 2 GA/100 Kg, 30 DAA): 37
- Density ([2]; Metalaxyl 2 GA/100 Kg, 30 DAA): 46.6
- Relative Density ([2]; Metalaxyl 2 GA/100 Kg, 30 DAA): 124.2
- Count ([2]; Metalaxyl 2 GA/100 Kg, 46 DAA): 73
- Density ([2]; Metalaxyl 2 GA/100 Kg, 46 DAA): 90.9
- Relative Density ([2]; Metalaxyl 2 GA/100 Kg, 46 DAA): 117.8
- Vigor ([2]; Metalaxyl 2 GA/100 Kg, 46 DAA): 3.75
- Count [2, 7]: 34
- Density [2, 7]: 42.8
- Relative Density [2, 7]: 114.2
- Count [2, 8]: 73
- Density [2, 8]: 91.6
- Relative Density [2, 8]: 118.6
- Vigor [2, 8]: 3.5
- Count, Variety A ([3]; Metalaxyl 1 GA/100 Kg, Day 6): 76
- Count, Variety B ([3]; Metalaxyl 1 GA/100 Kg, Day 6): 77
- Count, Variety A ([3]; Metalaxyl 1 GA/100 Kg, Day 14): 57
- Count, Variety B ([3]; Metalaxyl 1 GA/100 Kg, Day 14): 26
- Count, Variety A ([3]; Metalaxyl 1 GA/100 Kg, Day 19): 24
- Count, Variety B ([3]; Metalaxyl 1 GA/100 Kg, Day 19): 5
- Count, Variety A ([3]; Metalaxyl 5 GA/100 Kg, Day 6): 70
- Count, Variety B ([3]; Metalaxyl 5 GA/100 Kg, Day 6): 94
- Count, Variety A ([3]; Metalaxyl 5 GA/100 Kg, Day 14): 73
- Count, Variety B ([3]; Metalaxyl 5 GA/100 Kg, Day 14): 84
- Count, Variety A ([3]; Metalaxyl 5 GA/100 Kg, Day 19): 49
- Count, Variety B ([3]; Metalaxyl 5 GA/100 Kg, Day 19): 45
- Count, Variety A ([3]; Metalaxyl 10 GA/100 Kg, Day 6): 73.75
- Count, Variety B ([3]; Metalaxyl 10 GA/100 Kg, Day 6): 83
- Count, Variety A ([3]; Metalaxyl 10 GA/100 Kg, Day 14): 77.5
- Count, Variety B ([3]; Metalaxyl 10 GA/100 Kg, Day 14): 85
- Count, Variety A ([3]; Metalaxyl 10 GA/100 Kg, Day 19): 72.5
- Count, Variety B ([3]; Metalaxyl 10 GA/100 Kg, Day 19): 68
- Count, Variety A ([3]; Metalaxyl 15 GA/100 Kg, Day 6): 60
- Count, Variety B ([3]; Metalaxyl 15 GA/100 Kg, Day 6): 83
- Count, Variety A ([3]; Metalaxyl 15 GA/100 Kg, Day 14): 81.25
- Count, Variety B ([3]; Metalaxyl 15 GA/100 Kg, Day 14): 80
- Count, Variety A ([3]; Metalaxyl 15 GA/100 Kg, Day 19): 36.25
- Count, Variety B ([3]; Metalaxyl 15 GA/100 Kg, Day 19): 62
- Count [4, 9]: 42.5
- Density [4, 9]: 85
- Relative Density [4, 9]: 121.4
- Count [4, 10]: 26
- Density [4, 10]: 52
- Relative Density [4, 10]: 89.7
- Count [4, 11]: 41.8
- Density [4, 11]: 83.5
- Relative Density [4, 11]: 122.8
- Relative Density ([4]; Metalaxyl 31 GA/100 Kg (reference), 18 DAA, Ctrl. soil): 100
- Relative Density ([4]; Metalaxyl 31 GA/100 Kg (reference), 18 DAA, Soil Inoc. with Pythium): 100
- Relative Density ([4]; Metalaxyl 31 GA/100 Kg (reference), 33 DAA, Ctrl. soil): 100
- Count [4, 12]: 35
- Density [4, 12]: 70
- Count [4, 13]: 29
- Density [4, 13]: 58
- Count [4, 14]: 34
- Density [4, 14]: 68
- Count [4, 15]: 8.3
- Density [4, 15]: 16.5
- Relative Density [4, 15]: 31.4
- Relative Density ([5]; Metalaxyl 15.5 GA/100 Kg (reference), 34 DAA, Ctrl. soil): 100
- Relative Density ([5]; Metalaxyl 15.5 GA/100 Kg (reference), 34 DAA, Soil Inoc. with Pythium): 100
- Relative Density ([5]; Metalaxyl 15.5 GA/100 Kg (reference), 46 DAA, Ctrl. soil): 100
- Relative Density ([5]; Metalaxyl 15.5 GA/100 Kg (reference), 46 DAA, Soil Inoc. with Pythium): 100
- Count [5, 16]: 37
- Density [5, 16]: 74
- Count [5, 17]: 25
- Density [5, 17]: 50
- Count [5, 18]: 37.5
- Density [5, 18]: 75
- Count [5, 19]: 24.5
- Density [5, 19]: 49
- Count [5, 20]: 38
- Density [5, 20]: 76
- Relative Density [5, 20]: 102.7
- Count [5, 21]: 26.5
- Density [5, 21]: 53
- Relative Density [5, 21]: 106
- Count [5, 22]: 37
- Density [5, 22]: 74
- Relative Density [5, 22]: 98.7
- Count [5, 23]: 24.5
- Density [5, 23]: 49
- Relative Density [5, 23]: 100
